The numbers were not newly measured in paper PMC11071064 (Nuclear medicine and biology, 2022), which cites them from elsewhere.

The test system of series [1] is RIPK1. The following applies: read-out: IC50 for binding toward RIPK1.
For series [2] the following is noted: pH 7.4.
Series [3] concerns RIPK1. The following applies: read-out: EC50 (potency).
Experiment in series [4]: not given
The source holds these as a separate data set.

By IC50 is commonly meant the point on the concentration scale where inhibition reaches its midpoint. What is called log D is lipophilicity at a set pH, counting ionised and neutral species. In the case of `CN1C(=O)[C@@H](NC(=O)c2n[nH]c(Cc3ccccc3)n2)COc2ccccc21` [Compound 4], the “log D” value is listed as 3.8. Besides, the IC50 in series [1] is 1 nM. In addition, the solubility in series [2] is on record as ~ 450 μM.
As usually defined, the EC50 is the concentration that produces a half-maximal response. As for `CN1C(=O)C(Cc2c[nH]c3ccccc23)NC1=S` (stereo not shown) [Nec-1], the EC50 in series [3] was 490 nM. In addition, in series [4], the “metabolic stability t1/2” value was less than 5 min.
Consider `CN1C(=O)NC(Cc2c[nH]c3c(Cl)cccc23)C1=O` (stereo not shown) [Nec-1s], for which the EC50 in series [3] is 210 nM. Further, the “metabolic stability t1/2” value in series [4] is recorded as less than 5 min.
